Results: PubChem BioAssay (NCI)
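Test compounds were applied to cells in 96-well plates for 48 hours at 5 doses. At the GI50, growth is halved. TGI: concentration producing complete growth inhibition.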

Assays:
Assay in all cases: NCI anticancer screen, dose series, 48 h
OVCAR-3 ovarian = system: OVCAR-3 ovarian
HL-60(TB) leukemia = system: HL-60(TB) leukemia
U251 CNS = system: U251 CNS
SNB-19 CNS = system: SNB-19 CNS
SF-539 CNS = system: SF-539 CNS
SK-OV-3 ovarian = system: SK-OV-3 ovarian
LOX IMVI melanoma = system: LOX IMVI melanoma
HT29 colon = system: HT29 colon
OVCAR-5 ovarian = system: OVCAR-5 ovarian
MCF7 breast = system: MCF7 breast

Structure (SMILES)	TGI (OVCAR-3 ovarian) [µM]	TGI (HL-60(TB) leukemia) [µM]	TGI (U251 CNS) [µM]	TGI (SNB-19 CNS) [µM]	TGI (SF-539 CNS) [µM]	TGI (SK-OV-3 ovarian) [µM]	TGI (LOX IMVI melanoma) [µM]	TGI (HT29 colon) [µM]	TGI (OVCAR-5 ovarian) [µM]	TGI (MCF7 breast) [µM]	GI50 (OVCAR-3 ovarian) [µM]	GI50 (HL-60(TB) leukemia) [µM]	GI50 (SNB-19 CNS) [µM]	GI50 (OVCAR-5 ovarian) [µM]	GI50 (SF-539 CNS) [µM]	GI50 (SK-OV-3 ovarian) [µM]	GI50 (MCF7 breast) [µM]
CN(C)CN(C)c1nc(N(C)C)nc(N(C)CN(C)C)n1	> 100	36.4	> 100	> 100	> 100	> 100	55.1	> 100	–	–	–	–	–	–	–	–	–
NN/C(=N\S(=O)(=O)c1ccc(S(=O)(=O)c2ccccc2)s1)Nc1ccc(Cl)cc1	72.2	62.2	> 100	> 100	> 100	> 100	36.6	65.4	> 100	> 100	–	–	–	–	–	–	–
C(#Cc1ccccc1)SC1=C(c2ccccc2)S/C(=C(\SC#Cc2ccccc2)c2ccccc2)S1	> 100	–	> 100	> 100	> 100	> 100	> 100	> 100	> 100	> 100	–	–	–	–	–	–	–
O=C(Cc1ccccc1)NN1C(=O)/C(=C\c2ccccc2O)SC1=Nc1ccccc1	> 100	–	> 100	> 100	> 100	> 100	–	> 100	> 100	> 100	–	–	–	–	–	–	–
O=[N+]([O-])/C(C(Cl)=C(Cl)Cl)=C(/Nc1ccccc1)Sc1ccccc1	30.1	42.4	27.7	34.3	52.3	42.9	30.7	48.7	–	75.2	–	–	–	–	–	–	–
C=CCNC(=S)/N=C/C(C(=O)Nc1ccccc1C)=C(\C)O	> 100	> 100	> 100	> 100	> 100	> 100	> 100	> 100	> 100	> 100	–	–	–	–	–	–	–
O=C(Nc1ccc2ccccc2c1)c1cc2cc(CCl)ccc2oc1=O	> 100	> 100	> 100	> 100	–	> 100	> 100	> 100	> 100	> 100	–	–	–	–	–	–	–
COc1ccc(CNc2nc3ccccc3nc2C(=O)O)cc1	> 100	> 100	> 100	> 100	> 100	–	> 100	> 100	> 100	> 100	–	–	–	–	–	–	–
CCn1c2ccccc2c2cc(Nc3cc(C)[nH]c(=O)n3)ccc21	> 100	–	> 100	> 100	> 100	> 100	–	> 100	> 100	> 100	–	–	–	–	–	–	–
CCCCC[C@H]1CCCCCCCCCC(=O)OC2C(O[C@@H]3OC(C)[C@H](OC(=O)[C@@H](C)CC)C(O[C@@H]4OC(C)[C@H](O)C(O)[C@@H]4O)[C@@H]3OC(=O)[C@H](C)CC)[C@H](OC3C(O)[C@@H](O)C(C)O[C@H]3O1)OC(CO)[C@H]2O (stereo not given in full)	32	35.9	32.1	32.1	–	29.3	31.4	30.3	30.6	34.7	–	–	–	–	–	–	–
COC(=O)C(NC(=O)OC(C)(C)C)P(=O)(OC)OC (stereo not given)	> 100	> 100	> 100	> 100	–	> 100	> 100	> 100	> 100	> 100	–	–	–	–	–	–	–
CN(C)CCCNC(=O)c1cn2c(ccc3sc4ccccc4c(=O)c32)n1	24.1	22.2	3.22	31.8	33.1	30.7	–	2.74	22.8	8.48	–	–	–	–	–	–	–
CC(C)=NOC(=O)Nc1cccc2c1OCO2	> 100	–	> 100	> 100	> 100	> 100	> 100	> 100	> 100	> 100	–	–	–	–	–	–	–
CC(C)C(NC(=O)C(Cc1ccccc1)NC(=O)[C@H]1CCC[C@H]1NC(=O)C(Cc1ccc(OC(C)(C)C)cc1)NC(=O)OC(C)(C)C)C(N)=O (stereo not given in full)	69.3	> 100	28.3	–	33.8	57.6	30.3	53.3	36.2	35.9	–	–	–	–	–	–	–
O=C1c2cc([N+](=O)[O-])sc2C(=O)c2c([N+](=O)[O-])csc21	–	0.112	1.01	3.02	1.17	3.09	0.269	–	2.95	–	–	–	–	–	–	–	–
O=C1C(c2c(O)[nH]c3ccc(S(=O)(=O)NCCO)cc23)=Nc2ccccc21	18.3	–	12.9	> 100	–	20.3	> 100	> 100	> 100	6.53	–	–	–	–	–	–	–
S=c1nc[nH]c2c1ncn2C1CCCO1 (stereo not given)	> 100	> 100	> 100	> 100	> 100	> 100	> 100	> 100	> 100	–	–	–	–	–	–	–	–
CC/C(=C\c1ccc(OC)cc1)c1ccc(OC)cc1	> 100	–	> 100	> 100	> 100	> 100	> 100	> 100	> 100	> 100	–	–	–	–	–	–	–
Clc1cc2nnn(C3CCCO3)c2cc1Cl (stereo not given)	> 100	> 100	> 100	–	> 100	> 100	–	> 100	> 100	> 100	–	–	–	–	–	–	–
Cc1ccc(S(=NS(=O)(=O)c2ccc(C)cc2)c2ccc(C)cc2)cc1	> 100	> 100	> 100	> 100	> 100	–	–	> 100	> 100	> 100	–	–	–	–	–	–	–
NS(=O)(=O)c1ccc(N=Nc2ccc(O)c(C(=O)O)c2)cc1	> 100	> 100	> 100	> 100	–	> 100	–	> 100	> 100	> 100	–	–	–	–	–	–	–
c1cc2c(cc1C1=NCCN1)c1cc(C3=NCCN3)ccc1n2CC1CCCCC1	> 100	59.6	22.9	46.3	19.2	81.8	39.7	> 100	95.6	–	–	–	–	–	–	–	–

Structure (SMILES)	TGI (OVCAR-3 ovarian) [µM]	TGI (HL-60(TB) leukemia) [µM]	TGI (U251 CNS) [µM]	TGI (SNB-19 CNS) [µM]	TGI (SF-539 CNS) [µM]	TGI (SK-OV-3 ovarian) [µM]	TGI (LOX IMVI melanoma) [µM]	TGI (HT29 colon) [µM]	TGI (OVCAR-5 ovarian) [µM]	TGI (MCF7 breast) [µM]	GI50 (OVCAR-3 ovarian) [µM]	GI50 (HL-60(TB) leukemia) [µM]	GI50 (SNB-19 CNS) [µM]	GI50 (OVCAR-5 ovarian) [µM]	GI50 (SF-539 CNS) [µM]	GI50 (SK-OV-3 ovarian) [µM]	GI50 (MCF7 breast) [µM]
CC(=O)OCC1OC(n2c(-c3ccccc3)c(N=Nc3ccc(C)cc3)c(C)c(C#N)c2=S)C(OC(C)=O)C(OC(C)=O)C1OC(C)=O (stereo not given)	64.7	> 100	33.4	54.5	–	–	64.1	> 100	51.6	> 100	–	–	–	–	–	–	–
O=S(=O)(O)c1cc(S(=O)(=O)O)c2c(N=Nc3ccc(N=Nc4ccccc4)cc3)c(O)ccc2c1	> 100	> 100	> 100	> 100	> 100	> 100	–	> 100	> 100	> 100	–	–	–	–	–	–	–
COc1ccc2c(c1)CCC/C2=N\NS(=O)(=O)c1c(C)cc(C)cc1C	> 100	–	> 100	> 100	41.5	–	43	43.5	> 100	> 100	–	–	–	–	–	–	–
Cc1ccccc1NC(=O)Cc1csc(N=Nc2c(O)[nH]c3ccccc23)n1	–	62.1	> 1	> 100	32.3	–	> 100	> 100	> 100	> 100	–	–	–	–	–	–	–
O=C(N/N=C\c1ccc([N+](=O)[O-])s1)c1ccncc1	8.06	> 22.7	> 63.8	> 77.4	43.3	> 100	–	15.9	> 66.9	9.96	–	–	–	–	–	–	–
O=C1CC(c2ccccc2)S(=O)c2ccccc2N1 (stereo not given)	> 100	> 100	> 100	> 100	–	> 100	> 100	> 100	> 100	> 100	–	–	–	–	–	–	–
O=S(=O)(O)c1ccc2c(N=Nc3ccc(Sc4ccc(N=Nc5c(O)ccc6cc(S(=O)(=O)O)ccc56)cc4)cc3)c(O)ccc2c1	> 100	> 100	> 100	> 100	> 100	> 100	–	> 100	> 100	> 100	–	–	–	–	–	–	–
CC(=O)NC1C(OCc2ccccc2)OC(CO)C(O)C1OCC(=O)N[C@@H](C)C(=O)N[C@H](CCC(=O)NCCCNc1ccc([N+](=O)[O-])c2[nH]c3ccccc3c(=O)c12)C(N)=O (stereo not given in full)	> 100	> 100	> 100	> 100	> 100	> 100	> 100	> 100	> 100	–	–	–	–	–	–	–	–
CCCCCCCCCCCCO[P+](=O)OCCCCCCCCCCCC	> 100	> 100	> 100	> 100	> 100	> 100	–	> 100	> 100	> 100	–	–	–	–	–	–	–
O=C(O)c1ccc(N/C(=C(/C(Cl)=C(Cl)Cl)[N+](=O)[O-])n2nnc3ccccc32)cc1	> 100	–	> 100	> 100	> 100	> 100	–	> 100	> 100	> 100	–	–	–	–	–	–	–
CCOC(=O)C(C(=O)COC(C)(C)C)[C@@H]1C=C[C@H](OC(C)=O)C1 (stereo not given in full)	> 100	–	> 100	> 100	> 100	> 100	–	> 100	> 100	> 100	–	–	–	–	–	–	–
C=C1C(=O)OC2C3OC(C)(CCC(O)C3COC(C)=O)CC(OC(=O)/C(=C/C)COC(C)=O)C12 (stereo not given)	0.983	–	2.88	18.3	3.22	19.6	0.342	0.521	1.12	0.533	–	–	–	–	–	–	–
CC(C)c1ccc(/C=C2\CSCC3=C2N=C2SCC(=O)N2C3c2ccc(C(C)C)cc2)cc1 (stereo not given)	> 100	> 100	> 100	–	> 100	> 100	> 100	> 100	> 100	> 100	–	–	–	–	–	–	–
O=c1[nH]nc(-c2ccccc2)n1-n1cnnc1	> 100	–	> 100	> 100	> 100	> 100	> 100	> 100	> 100	> 100	–	–	–	–	–	–	–
COCCN1C(=O)C2c3[nH]c4ccccc4c3C3CCC(C(C)(C)C)CC3C2C1=O (stereo not given)	33.8	37.6	28.9	44.6	35.6	42.7	–	27	–	43.3	–	–	–	–	–	–	–
COc1ccc(-n2cnc3c(NC(Cc4ccccc4)C(=O)O)ncnc32)cc1 (stereo not given)	> 100	–	> 100	–	–	> 100	> 100	> 100	> 100	> 100	–	–	–	–	–	–	–
CCOc1cc2c(cc1O)C(N)C[C@@H]1[C@@H]2CC[C@]2(C)[C@@H](O)CC[C@@H]12 (stereo not given in full)	> 100	46.5	> 100	> 100	–	–	> 100	> 100	> 100	> 100	44.9	–	–	–	–	–	–
Cc1ccc(/C=C2/N=C(N/N=C\c3ccccc3)NC2=O)cc1	> 100	–	89.6	90.5	> 100	> 100	> 100	> 100	> 100	> 100	–	–	–	–	–	–	–
Cc1cc2ccc(N)nc2[nH]c1=O	–	> 100	> 100	> 100	> 100	> 100	–	> 100	> 100	> 100	–	–	–	–	–	–	–
C=C(C)[C@@H]1CC[C@]2(CO)CC[C@]3(C)[C@H](CC[C@@H]4[C@@]5(C)CC[C@H](NCO)C(C)(C)[C@@H]5CC[C@]43C)[C@@H]12	1.61	2.32	–	1.82	1.52	1.61	–	–	1.56	1.61	0.88	1	0.95	0.85	0.826	0.87	0.794
Nc1cc2c3c(cccc3c1)C(=O)N(c1ccc(OCCN3CCCC3)cc1)C2=O	29.7	–	64.6	41.9	27.8	42	48.5	29.8	46.3	31.5	–	–	–	–	–	–	–
COC(=O)c1cc(/C=C\c2cc(OC)ccc2OC)ccc1OC	65.8	–	> 100	> 100	> 100	83.6	56.9	> 100	> 100	84.4	–	–	–	–	–	–	–
